Results taken from ChEMBL document CHEMBL5518204, “Discovery and Proof of Concept of Potent Dual Polθ/PARP Inhibitors for Efficient Treatment of Homologous Recombination-Deficient Tumors” (J Med Chem, 2024).
Active and inactive are the calls of the source. No cut-off for these calls is given here.

Assays:
[1] = AUC (0 to t) in Sprague-Dawley rat at 1 mg/kg, iv by LC-MS/MS analysis; type: ADME, organism-based; conditions: in vivo
[2] = Half life in Sprague-Dawley rat at 1 mg/kg, iv by LC-MS/MS analysis; type: ADME, organism-based; conditions: in vivo
[3] = system: HCT-116; experiment: Antiproliferative activity against BRCA2-deficient human HCT-116 cells assessed as inhibition of cell proliferation incubated for 5 days by MTT assay; type: functional, cell-based; conditions: HCT-116, 120 h
[4] = system: SK-OV-3; experiment: Antiproliferative activity against BRCA-proficient human SK-OV-3 cells assessed as inhibition of cell proliferation incubated for 5 days by MTT assay; type: functional, cell-based; conditions: SK-OV-3, 120 h
[5] = Stability in rat plasma assessed as half life; type: ADME, cell-free
[6] = system: MDA-MB-231; experiment: Antiproliferative activity against human MDA-MB-231 cells incubated for 4 days by MTT assay; type: functional, cell-based; conditions: time 4.0 day
[7] = target: T1, Protein mono-ADP-ribosyltransferase PARP3 (Homo sapiens, UniProt Q9Y6F1); experiment: Inhibition of PARP3 (unknown origin)
T1 sequence (Q9Y6F1 whole entry): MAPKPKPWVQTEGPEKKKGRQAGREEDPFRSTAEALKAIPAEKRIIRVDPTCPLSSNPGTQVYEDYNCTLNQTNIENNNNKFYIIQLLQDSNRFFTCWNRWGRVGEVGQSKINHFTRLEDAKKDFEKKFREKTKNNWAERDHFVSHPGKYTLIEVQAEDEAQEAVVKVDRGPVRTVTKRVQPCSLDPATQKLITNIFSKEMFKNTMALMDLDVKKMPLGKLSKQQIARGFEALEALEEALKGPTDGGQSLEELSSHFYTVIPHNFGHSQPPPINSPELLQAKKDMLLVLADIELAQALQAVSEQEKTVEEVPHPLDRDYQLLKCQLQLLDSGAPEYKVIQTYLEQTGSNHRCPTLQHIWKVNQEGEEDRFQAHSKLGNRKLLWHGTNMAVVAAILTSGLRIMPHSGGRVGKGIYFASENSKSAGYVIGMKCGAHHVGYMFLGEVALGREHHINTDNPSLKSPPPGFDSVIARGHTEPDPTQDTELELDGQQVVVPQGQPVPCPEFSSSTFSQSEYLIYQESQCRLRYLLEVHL

[8] = Clearance in Sprague-Dawley rat at 1 mg/kg, iv by LC-MS/MS analysis; type: ADME, organism-based; conditions: in vivo
[9] = target: T2, Protein mono-ADP-ribosyltransferase PARP10 (Homo sapiens, UniProt Q53GL7); experiment: Inhibition of PARP10 (unknown origin)
T2 sequence (Q53GL7 whole entry): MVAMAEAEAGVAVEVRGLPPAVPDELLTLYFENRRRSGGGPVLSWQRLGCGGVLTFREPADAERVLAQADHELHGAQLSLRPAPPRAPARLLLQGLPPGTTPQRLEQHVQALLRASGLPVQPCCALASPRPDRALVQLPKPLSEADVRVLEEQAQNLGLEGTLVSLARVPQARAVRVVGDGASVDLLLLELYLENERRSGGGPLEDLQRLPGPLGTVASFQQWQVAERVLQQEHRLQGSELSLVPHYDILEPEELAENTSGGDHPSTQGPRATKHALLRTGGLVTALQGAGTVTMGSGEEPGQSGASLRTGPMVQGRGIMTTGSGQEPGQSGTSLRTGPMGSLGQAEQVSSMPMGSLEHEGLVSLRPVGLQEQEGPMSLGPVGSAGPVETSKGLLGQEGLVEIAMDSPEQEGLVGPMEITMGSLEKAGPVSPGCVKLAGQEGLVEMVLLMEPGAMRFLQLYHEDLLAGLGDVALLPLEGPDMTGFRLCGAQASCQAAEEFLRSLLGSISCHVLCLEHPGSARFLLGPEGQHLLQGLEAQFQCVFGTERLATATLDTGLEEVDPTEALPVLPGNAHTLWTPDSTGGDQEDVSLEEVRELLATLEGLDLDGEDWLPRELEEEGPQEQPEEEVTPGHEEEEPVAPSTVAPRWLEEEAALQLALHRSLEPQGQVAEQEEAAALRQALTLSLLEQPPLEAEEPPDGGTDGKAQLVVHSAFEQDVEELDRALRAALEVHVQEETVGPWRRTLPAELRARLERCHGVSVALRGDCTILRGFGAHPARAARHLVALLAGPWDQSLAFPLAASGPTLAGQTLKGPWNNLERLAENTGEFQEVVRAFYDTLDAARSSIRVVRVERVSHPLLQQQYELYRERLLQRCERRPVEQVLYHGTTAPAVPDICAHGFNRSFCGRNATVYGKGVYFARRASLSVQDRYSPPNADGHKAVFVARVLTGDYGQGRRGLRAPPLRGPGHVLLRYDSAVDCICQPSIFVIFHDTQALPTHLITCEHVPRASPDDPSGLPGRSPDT

[10] = system: MDA-MB-231; experiment: Antitumor activity against human MDA-MB-231 cells xenografted in BALB/c mouse assessed as tumor growth inhibition at 20 mg/kg, ip administered for 21 days; type: functional; conditions: MDA-MB-231, 504 h, time 21 day, read-out: TGI
[11] = system: SW48; experiment: Antiproliferative activity against BRCA2-deficient human SW48 cells assessed as inhibition of cell proliferation incubated for 5 days by MTT assay; type: functional, cell-based; conditions: SW48, 120 h, read-out: IC50
[12] = Metabolic stability in rat liver microsome assessed as intrinsic clearance; type: ADME; conditions: liver microsomes, read-out: CLH
[13] = AUC (0 to infinity) in Sprague-Dawley rat at 1 mg/kg, iv by LC-MS/MS analysis; type: ADME, organism-based; conditions: in vivo
[14] = MRT (0 to infinity) in Sprague-Dawley rat at 1 mg/kg, iv by LC-MS/MS analysis; type: ADME, organism-based; conditions: in vivo
[15] = Toxicity in BALB/c mouse xenografted with human MDA-MB-231 cells assessed as spleen damage at 20 to 40 mg/kg, ip administered for 21 days by H and E staining based analysis; type: organism-based; conditions: in vivo, 504 h, dose 20-40 mg/kg, time 21 day
[16] = Apparent volume of distribution in Sprague-Dawley rat at 1 mg/kg, iv by LC-MS/MS analysis; type: ADME, organism-based; conditions: in vivo, read-out: Vz

AUC(0-t) [1]: 724 ng·h/mL
half-life [2]: 2 h
IC50 [3]: 8.9 µM
IC50 [4]: 18.9 µM
half-life [5]: 38.5 h
IC50 [7]: 0.0512 µM
clearance [8]: 22.7 mL/min/kg
IC50 [9]: 1.1 µM
IC50 [11]: 2.9 µM
CLint scaled [12]: 802 mL/min/kg
AUC(0-inf) [13]: 738 ng·h/mL
MRT inf [14]: 0.6 h
Vd [16]: 3.97 L/kg
SMILES: COc1ccc(Cl)cc1-c1cc(C)ncc1C(=O)Nc1nnc(OCC2CCN(C(=O)c3cc(Cc4n[nH]c(=O)c5ccccc45)ccc3F)CC2)s1
Activity [6]: Active
inhibition in vivo at 20 mg/kg [10]: 40.6%
Activity [15]: Non-Toxic
